Laboratory results: ChEMBL document CHEMBL4507303, “Data for DCP probe TP-004” (2021)

Target: Endothelin-1 receptor (Homo sapiens, UniProt P25101)
Test: Inhibition of [125I]-endothelin-1 binding to EDNRA; call rule not given here

Chain of Endothelin-1 receptor (P25101 whole entry): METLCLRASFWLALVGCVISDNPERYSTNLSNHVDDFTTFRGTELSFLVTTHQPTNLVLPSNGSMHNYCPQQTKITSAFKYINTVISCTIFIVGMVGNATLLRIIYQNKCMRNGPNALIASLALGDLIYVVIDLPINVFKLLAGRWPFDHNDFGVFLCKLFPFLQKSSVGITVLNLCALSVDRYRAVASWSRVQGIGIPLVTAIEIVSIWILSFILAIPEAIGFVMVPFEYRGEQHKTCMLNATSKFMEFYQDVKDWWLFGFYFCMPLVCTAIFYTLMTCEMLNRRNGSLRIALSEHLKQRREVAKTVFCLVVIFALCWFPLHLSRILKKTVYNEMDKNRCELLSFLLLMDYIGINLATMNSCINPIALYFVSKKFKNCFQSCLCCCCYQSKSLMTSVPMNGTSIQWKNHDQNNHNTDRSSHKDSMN

SMILES: FC(F)(F)c1cc(-c2ccccc2)c2nncn2c1 [TPn-004]
- IC50: > 10 µM (not active)
